Assay results as given in paper PMC10614203, “Synthesis, Structure–Activity Relationships, Radiofluorination, and Biological Evaluation of [^18F]RM365, a Novel Radioligand for Imaging the Human Cannabinoid Receptor Type 2 (CB2R) in the Brain with PET” (Journal of Medicinal Chemistry, 2023).

Biological target: T1, rat CB2R (Rattus norvegicus, UniProt Q9QZN9)
T1 construct: one spleen from a female SPRD rat expressing high levels of the receptor in the leukocytes; from tissue; host or cells: rat spleen (female SPRD rat; autoradiography also described with male F433 rats)
T1 sequence (Q9QZN9 1-360): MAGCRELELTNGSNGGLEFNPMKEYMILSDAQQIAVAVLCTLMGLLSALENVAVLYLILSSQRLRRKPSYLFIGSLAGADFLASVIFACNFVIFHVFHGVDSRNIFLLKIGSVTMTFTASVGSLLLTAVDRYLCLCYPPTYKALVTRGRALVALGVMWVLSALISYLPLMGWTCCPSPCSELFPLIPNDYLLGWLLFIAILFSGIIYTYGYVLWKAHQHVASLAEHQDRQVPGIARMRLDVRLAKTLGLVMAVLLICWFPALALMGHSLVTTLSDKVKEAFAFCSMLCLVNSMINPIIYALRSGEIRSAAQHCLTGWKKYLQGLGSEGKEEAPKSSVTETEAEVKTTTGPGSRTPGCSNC
Experiment: Homologous competition binding of [18F]RM365 / RM365 on rat spleen homogenate
Text: To complement the indirect determination of the affinity of RM365 toward the CB2R in vitro, we performed a direct binding study with the radiofluorinated ligand using preparations of CHO cells stably transfected with the cloned human receptor and one spleen from a female SPRD rat expressing high levels of the receptor in the leukocytes.[12] The results of the homologous competition study shown in Figure 6 confirm the good affinity of [^18F]RM365 toward the human CB2R with a KD value of about 2 nM. […] Furthermore, the measurement signal obtained from the incubation of [^18F]RM365 with the homogenate of rat spleen was in the range of the values obtained for the nonspecific binding of the radioligand toward the preparation of CB2R-transfected CHO cells. We conclude that RM365 binds the rat CB2R with lower affinity than the human CB2R but expect no significant interactions of the radioligand with nonspecific binding sites.[82] […]
The nonspecific binding of the respective radioligand was determined by coincubation with CP55,940 (final concentration 10^–5 M). The normalized values of bound activity (% specific binding) were calculated and plotted vs the logarithm of the concentration of the respective test compound. […]

Kd (rat spleen homogenate, read-out: KD for the rCB2R): > 10 µM | specific binding to rat spleen homogenates, in words (spleen of a female SPRD rat): no detectable interaction
SMILES: CC1(C)Cc2ccc(C#N)cc2[C@@H]1NC(=O)c1cc2cc([18F])ccc2[nH]1 [[^18F]RM365]
